Test results from US11345681B1, “Inhibitors of fibroblast growth factor receptor kinases” (Kinnate Biopharma Inc., priority 2020, dated 2022).

Molecular target: Wild type FGFR2 (Homo sapiens (Human), UniProt P21802)
Test: FGFR2 kinase assay (fluorescence-based microfluidic mobility shift assay)
Assay type: biochemical
Conditions: wild type FGFR2 0.06 nM, 100 μM ATP, 80 minutes at room temperature; class symbols

Chain of Wild type FGFR2 (P21802 22-821): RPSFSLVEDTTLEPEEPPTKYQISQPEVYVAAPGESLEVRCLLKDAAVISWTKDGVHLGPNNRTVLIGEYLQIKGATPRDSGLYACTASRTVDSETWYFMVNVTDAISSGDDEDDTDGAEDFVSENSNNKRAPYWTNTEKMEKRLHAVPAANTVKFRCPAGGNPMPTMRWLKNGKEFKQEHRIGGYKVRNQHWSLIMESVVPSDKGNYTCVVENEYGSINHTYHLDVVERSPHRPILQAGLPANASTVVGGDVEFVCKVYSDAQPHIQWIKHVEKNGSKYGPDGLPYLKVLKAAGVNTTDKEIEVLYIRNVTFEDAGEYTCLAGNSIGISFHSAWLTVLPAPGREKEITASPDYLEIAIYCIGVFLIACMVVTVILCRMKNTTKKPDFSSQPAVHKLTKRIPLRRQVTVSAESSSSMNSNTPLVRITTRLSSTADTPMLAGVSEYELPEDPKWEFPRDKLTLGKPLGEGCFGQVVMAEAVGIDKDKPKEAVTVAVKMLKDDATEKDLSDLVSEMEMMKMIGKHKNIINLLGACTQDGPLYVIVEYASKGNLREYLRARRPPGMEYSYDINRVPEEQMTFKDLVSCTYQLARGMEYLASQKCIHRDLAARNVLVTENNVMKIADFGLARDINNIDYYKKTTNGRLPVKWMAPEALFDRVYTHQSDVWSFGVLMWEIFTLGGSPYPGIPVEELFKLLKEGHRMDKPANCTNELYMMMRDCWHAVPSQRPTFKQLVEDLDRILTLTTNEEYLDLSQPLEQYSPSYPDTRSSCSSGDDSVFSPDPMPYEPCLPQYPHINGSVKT

IC50 [nM] | Compound
≤ 100 | C=CC(=O)N1C[C@@H](n2nc(C#Cc3cc4ncn(C)c4cc3Cl)c(C(N)=O)c2NC)C[C@@H]1COC [Example 88, 3-[2-(6-Chloro-1-methyl-1,3-benzodiazol-5-yl)ethynyl]-1-[(3S,5R)-5-(methoxymethyl)-1-(prop-2-enoyl)pyrrolidin-3-yl]-5-(methylamino)pyrazole-4-carboxamide]
≤ 100 | C=CC(=O)N1C[C@@H](n2nc(C#Cc3cc4ncn(CC)c4cc3Cl)c(C(N)=O)c2NC)C[C@@H]1COC [Example 89, 3-[2-(6-Chloro-1-ethyl-1,3-benzodiazol-5-yl)ethynyl]-1-[(3S,5R)-5-(methoxymethyl)-1-(prop-2-enoyl)pyrrolidin-3-yl]-5-(methylamino)pyrazole-4-carboxamide]
≤ 100 | C=CC(=O)N1C[C@@H](n2nc(C#Cc3cc4nc[nH]c4cc3F)c(C(N)=O)c2NC)C[C@@H]1COC [Example 90, 3-[2-(6-Fluoro-1H-1,3-benzodiazol-5-yl)ethynyl]-1-[(3S,5R)-5-(methoxymethyl)-1-(prop-2-enoyl)pyrrolidin-3-yl]-5-(methylamino)pyrazole-4-carboxamide]
≤ 100 | C=CC(=O)N1C[C@@H](n2nc(C#Cc3cc4nc(C)[nH]c4cc3F)c(C(N)=O)c2NC)C[C@@H]1COC [Example 91, 3-[2-(6-Fluoro-2-methyl-1H-1,3-benzodiazol-5-yl)ethynyl]-1-[(3S,5R)-5-(methoxymethyl)-1-(prop-2-enoyl)pyrrolidin-3-yl]-5-(methylamino)pyrazole-4-carboxamide]
≤ 100 | C=CC(=O)N1C[C@@H](n2nc(C#Cc3cc4nc[nH]c4cc3Cl)c(C(N)=O)c2NC)C[C@@H]1COC [Example 92, 3-[2-(6-Chloro-1H-1,3-benzodiazol-5-yl)ethynyl]-1-[(3S,5R)-5-(methoxymethyl)-1-(prop-2-enoyl)pyrrolidin-3-yl]-5-(methylamino)pyrazole-4-carboxamide]
≤ 100 | C=CC(=O)N1C[C@@H](n2nc(C#Cc3cc4ncn(C(F)F)c4cc3Cl)c(C(N)=O)c2NC)C[C@@H]1COC [Example 94, 3-[2-[6-Chloro-1-(difluoromethyl)-1,3-benzodiazol-5-yl]ethynyl]-1-[(3S,5R)-5-(methoxymethyl)-1-(prop-2-enoyl)pyrrolidin-3-yl]-5-(methylamino)pyrazole-4-carboxamide]
100 to 1000 | C=CC(=O)N1C[C@@H](n2nc(C#Cc3cc4c(cc3Cl)nc(C)n4C(F)F)c(C(N)=O)c2NC)C[C@@H]1COC [Example 95, 3-[2-[6-Chloro-3-(difluoromethyl)-2-methyl-1,3-benzodiazol-5-yl]ethynyl]-1-[(3S,5R)-5-(methoxymethyl)-1-(prop-2-enoyl)pyrrolidin-3-yl]-5-(methylamino)pyrazole-4-carboxamide]
≤ 100 | C=CC(=O)N1C[C@@H](n2nc(C#Cc3cc4nc(C)n(C(F)F)c4cc3Cl)c(C(N)=O)c2NC)C[C@@H]1COC [Example 96, 3-[2-[6-Chloro-1-(difluoromethyl)-2-methyl-1,3-benzodiazol-5-yl]ethynyl]-1-[(3S,5R)-5-(methoxymethyl)-1-(prop-2-enoyl)pyrrolidin-3-yl]-5-(methylamino)pyrazole-4-carboxamide]
≤ 100 | C=CC(=O)N1C[C@@H](n2nc(C#Cc3c(F)cc4c(nnn4C)c3F)c(C(N)=O)c2NC)C[C@@H]1COC [Example 97, 3-[2-(4,6-Difluoro-1-methyl-1,2,3-benzotriazol-5-yl)ethynyl]-1-[(3S,5R)-5-(methoxymethyl)-1-(prop-2-enoyl)pyrrolidin-3-yl]-5-(methylamino)pyrazole-4-carboxamide]

Compound | IC50 [nM]
C=CC(=O)N1C[C@@H](n2nc(C#Cc3cc4c(cc3Cl)ncn4C(F)F)c(C(N)=O)c2NC)C[C@@H]1COC [Example 93, 3-[2-[6-Chloro-3-(difluoromethyl)-1,3-benzodiazol-5-yl]ethynyl]-1-[(3S,5R)-5-(methoxymethyl)-1-(prop-2-enoyl)pyrrolidin-3-yl]-5-(methylamino)pyrazole-4-carboxamide] | ≤ 100
